Laboratory results reported in patent US20220289719A1, “HETEROCYCLIC COMPOUNDS AS MNK INHIBITORS” (NANJING INNOCARE PHARMA TECH CO., LTD., priority 2017, published 2022).
Counter-ions that a name gives are not always drawn.

target: T1, Human recombinant full-length MNK1 protein (Homo sapiens, UniProt Q9BUB5); test: MNK1 inhibitory activity assay (ADP-Glo in vitro kinase assay); type: biochemical; details: 10 concentration points
T1 construct: Human recombinant full-length MNK1 protein; purchased Thermo PR9138A
Experimental: MNK1 Inhibitory Activity Assay: Evaluation of the effects of compounds of the invention on […] (MNK1) activity using in vitro kinase assays. The experimental methods are summarized as follows: The in vitro activity of MNK1 was determined by measuring the level of ADP produced in the kinase reaction using the ADP-Glo Kinase Assay Kit. The reaction buffer consisted of the following components: 50 mM HEPES, pH 7.5, 10 mM MgCl2, 1 mM EGTA, 0.01% Brij35. Human recombinant full-length MNK1 protein (Thermo, Cat. No. PR9138A) was diluted with a reaction buffer to a 3.13 ng/uL kinase solution. The substrate reaction solution consisted of a substrate diluted to 0.75 mg/ml in reaction buffer ([…], available from […] Domestic Company), 2250 uM ATP, the ADP-Glo reagent and kinase assay solution from Promega kit (Promega, V9102). […] If the compound IC50 value is very low, the initial concentration of the compound can be lowered. To a 384-well assay plate (Thermo, Cat. No. 264706) were added 1 uL of compound solution and 2 uL of MNK1 kinase solution. The mixture was mixed well and incubated for 30 minutes at room temperature; then 2 uL of substrate reaction solution was added, the reaction mixture was incubated for 120 minutes at room temperature. The reaction was terminated after an equal volume of 5uLADP-Glo solution was added, and the remaining ATP was completely consumed. After mixing for 60 minutes at room temperature, 10 ul of the kinase assay solution was added, and the mixture was uniformly mixed, and allowed to stand at room temperature for 40 minutes in the dark. The detection solution converts ADP into new ATP through coupled luciferase/luciferin, and ATP is converted into optical signal by Ultr-GloTM luciferase, which can be detected by Envision. The intensity of the light signal is proportional correlated with the amount of ADP produced in the kinase reaction, therefore, the activity of MNK1 kinase can be determined. In this experiment, the group without protein was used as a negative control (100% inhibition). The group with protein but without compounds was used as a positive control (0% inhibition).

T1 sequence (Q9BUB5 whole entry): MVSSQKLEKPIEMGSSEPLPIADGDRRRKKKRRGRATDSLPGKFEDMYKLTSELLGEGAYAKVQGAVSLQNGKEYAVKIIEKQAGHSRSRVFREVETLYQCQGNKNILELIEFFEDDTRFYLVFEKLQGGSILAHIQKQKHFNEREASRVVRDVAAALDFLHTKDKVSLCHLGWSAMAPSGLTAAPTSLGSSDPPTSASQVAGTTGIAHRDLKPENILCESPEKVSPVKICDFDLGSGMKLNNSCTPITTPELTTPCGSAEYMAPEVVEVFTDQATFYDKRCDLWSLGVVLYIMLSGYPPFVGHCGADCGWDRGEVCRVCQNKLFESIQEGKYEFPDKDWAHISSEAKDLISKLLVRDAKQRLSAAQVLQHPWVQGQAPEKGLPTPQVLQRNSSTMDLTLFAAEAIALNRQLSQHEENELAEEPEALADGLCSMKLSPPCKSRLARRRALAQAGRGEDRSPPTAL

| IC50 [nM] | Compound |
| --- | --- |
| 7.8 | CCOC(=O)c1c(N)ncnc1Nc1cc2cn[nH]c2cc1OC [Compound 36, 5-((6-Amino-5-ethoxycarbonylpyrimidin-4-yl)amino)-6-methoxy-1H-indazole dicarboxylate] |
| 11.9 | CCOC(=O)c1c(NC(C)=O)ncnc1Nc1cc2cn[nH]c2cc1OC [Compound 38, 5-((6-(Acetylamino)-5-ethoxycarbonylpyrimidin-4-yl)amino)-6-methoxy-1H-indazole] |
| 13 | COc1cc2[nH]ncc2cc1Nc1ncnc(N)c1C(=O)O [Compound 39, 5-((6-Amino-5-carbonylpyrimidin-4-yl)amino)-6-methoxy-1H-indazole formate] |
| 1140 | COc1cc2[nH]ncc2cc1Nc1ncnc(N)c1C(=O)N(C)C [Compound 40] |
| 1050 | COc1cc2[nH]ncc2cc1Nc1ncnc(N)c1C(=O)N1CCOCC1 [Compound 41] |
| 600 | COc1cc2[nH]ncc2cc1Nc1ncnc(N)c1C#N [Compound 42, 5-((6-Amino-5-cyanopyrimidin-4-yl)amino)-6-methoxy-1H-indazole] |
| 264 | COc1cc2c(cnn2C(=O)OC(C)(C)C)cc1Nc1ncnc(N)c1-c1ccccn1 [Compound 43] |
| 1000 | COc1cc2[nH]ncc2cc1Nc1ncnc(N)c1-c1ccccn1 [Compound 44, 5-((6-amino-5-(pyridin-2-yl)pyrimidin-4-yl)amino-6-methoxy-1H-indazole formate] |
| 35.3 | COc1cc2[nH]ncc2cc1Nc1ncnc(N)c1F [Compound 45, 5-((6-Amino-5-fluoropyrimidin-4-yl)amino)-6-methoxy-1H-indazole] |
| 49.4 | COc1cc2[nH]ncc2cc1Nc1ncnc(N)c1OC [Compound 46, 5-((6-Amino-5-methoxypyrimidin-4-yl)amino)-6-methoxy-1H-indazole] |
| 79.1 | COc1cc2[nH]ncc2cc1Nc1ncnc(N)c1C [Compound 47, 5-((6-Amino-5-methylpyrimidin-4-yl)amino)-6-methoxy-1H-indazole] |
| 187 | COc1cc2[nH]ncc2cc1Nc1ncnc(NC(=O)C2CC2)c1C [Compound 48, 5-((6-(Cyclopropionamido)-5-methylpyrimidin-4-yl)amino)-6-methoxy-1H-indazole] |
| 1050 | COc1cc2[nH]ncc2cc1Nc1cc(NS(=O)(=O)C2CC2)ncn1 [Compound 49, 5-((6-(Cyclopropanesulfonylamino)pyrimidin-4-yl)amino)-6-methoxy-1H-indazole] |
| 254 | COc1nc2[nH]ncc2cc1Nc1cc(NC(C)=O)ncn1 [Compound 50, 5-(6-(Acetamido)pyrimidin-4-yl) amino)-6-methoxy-1H-pyrazolo [3,4-b] pyridine formate] |
| 197 | COc1cc(Nc2cc3cn[nH]c3cc2OC)ncn1 [Compound 51, 5-(6-Methoxypyrimidin-4-yl) amino)-6-methoxy-1H-indazole formate] |
| 14.4 | COc1cc2[nH]ncc2cc1Nc1ncncc1OC [Compound 52] |
| 22.8 | COCCOc1cncnc1Nc1cc2cn[nH]c2cc1OC [Compound 53] |
| 34.3 | COc1cc2[nH]ncc2cc1Nc1ncncc1OCCO [Compound 54, 5-(5-(2-Hydroxyethoxy)pyrimidin-4-yl) amino)-6-methoxy-1H-indazole formate] |
| 187 | COc1cc2[nH]ncc2cc1Nc1ncncc1OCCN1CCOCC1 [Compound 55, 5-(5-(2-(4-Morpholine)ethoxy)pyrimidin-4-yl) amino)-6-methoxy-1H-indazole formate] |

| IC50 [nM] | Compound |
| --- | --- |
| 19.8 | CCOc1cncnc1Nc1cc2cn[nH]c2cc1OC [Compound 56, 5-(5-Ethoxypyrimidin-4-yl) amino)-6-methoxy-1H-indazole formate] |
| 323 | COc1cc2[nH]ncc2cc1Nc1ncncc1Nc1ccccc1 [Compound 57, 5-(5-Anilinopyrimidin-4-yl) amino)-6-methoxy-1H-indazole formate] |
| 6.1 | COc1cc2[nH]ncc2cc1Nc1ncnc2[nH]cnc12 [Compound 58, N-(6-Methoxy-1H-indazol-5-yl)-purin-6-amine] |
| 432 | COc1cc2[nH]ncc2cc1Nc1ncnc2c1ncn2C [Compound 59, N-(6-Methoxy-1H-indazol-5-yl)-9-methyl-9H-purin-6-amine] |
| 75.3 | CNc1cncnc1Nc1cc2cn[nH]c2cc1OC [Compound 62, 5-(5-Methylaminopyrimidin-4-yl) amino)-6-methoxy-1H-indazole formate] |
| 97.1 | COc1cn2nccc2cc1Nc1cc(NC(=O)C2CC2)ncn1 [Compound 63, N-(6-((6-Methoxypyrazolo[1,5-a]pyridin-5-yl)amino)pyrimidin-4-yl)cyclopropanecarboxamide] |
| 437 | COc1cc2[nH]ncc2cc1Nc1ncncc1-c1nc2cccc(N3CCN[C@@H](C)C3)c2n1C [Compound 64, 6-Methoxy-N-(4-{1-methyl-7-[(3S)-3-methylpiperazin-1-yl]-1H-benzimidazol-2-yl}pyrimidine-5-)-1H-indazol-5-amine] |
| 694 | COc1cc2[nH]ncc2cc1Nc1cc(-n2ccnc2)ncn1 [Compound 65, N-(6-(1H-Imidazol-1-yl)pyrimidin-4-yl)-6-methoxy-1H-indazol-5-amine formate] |
| 38.5 | COc1c(Nc2cc(N)ncn2)ccc2c1CNC2=O [Compound 66, 5-((6-Aminopyrimidin-4-yl)amino)-4-methoxyisoindolin-1-one hydrochloride] |
| 27.3 | COc1c(Nc2cc(Nc3ncccn3)ncn2)ccc2c1CNC2=O [Compound 69, 5-((6-(Pyrimidin-2-ylamino)pyrimidin-4-yl)amino)-4-methoxyisodihydroindol-1-one] |
| 17 | COc1c(Nc2cc(Nc3ccncn3)ncn2)ccc2c1CNC2=O [Compound 70, 5-((6-(Pyrimidin-4-ylamino)pyrimidin-4-yl)amino)-4-methoxyisodihydroindol-1-one] |
| 128 | COc1c(N)ncnc1Nc1ccc2c(c1OC)CNC2=O [Compound 71, 5-((6-Amino-5-methoxypyrimidin-4-yl)amino)-4-methoxyisoindolin-1-one] |
| 30.5 | COc1c(Nc2cc(NC(=O)C3CC3)ncn2)ccc2c1CN(C)C2=O [Compound 72, 5-((6-(Cyclopropionamido)pyrimidin-4-yl)amino)-4-methoxy-2-methylisodihydroindol-1-one] |
| 188 | COc1c(Nc2cc(NC(=O)C3CC3)ncn2)ccc2c1C(C)(C)N(C)C2=O [Compound 73, 5-((6-(Cyclopropionamido)pyrimidin-4-yl)amino)-4-methoxy-2,3,3-trimethylisoindole-1-one] |
| 38.4 | COc1cncnc1Nc1ccc2c(c1OC)CNC2=O [Compound 74, 5-((5-Methoxypyrimidin-4-yl)amino)-4-methoxyisodihydroindole-1-one] |
| 34.4 | COCCOc1cncnc1Nc1ccc2c(c1OC)CNC2=O [Compound 75, 5-((5-(2-Methoxyethoxy)pyrimidin-4-yl)amino)-4-methoxyisodihydroindole-1-one] |
| 572 | COc1c(Nc2ncncc2OCCN2CCOCC2)ccc2c1CNC2=O [Compound 76, 5-((5-(2-(4-morpholin)ethoxy)pyrimidin-4-yl)amino)-4-methoxyisodihydroindol-1-one formate] |
| 900 | COc1c(Nc2ncncc2OCCN(C)C)ccc2c1CNC2=O [Compound 77, 5-((5-(2-(Dimethylamino)ethoxy)pyrimidin-4-yl)amino)-4-methoxyisodihydroindole-1-one dicarboxylate] |
| 19.7 | COc1c(Nc2ncncc2OCCO)ccc2c1CNC2=O [Compound 78, 5-((5-(2-Hydroxyethoxy)pyrimidin-4-yl)amino)-4-methoxyisoindolin-1-one] |

| Compound | IC50 [nM] |
| --- | --- |
| CCOC(=O)c1c(N)ncnc1Nc1cc2cnn(C(=O)OC(C)(C)C)c2cc1OC [Compound 35, 1-tert-Butoxycarbonyl-5-((6-amino-5-ethoxycarbonylpyrimidin-4-yl)amino)-6-methoxyindazole] | 32.5 |
| CCOC(=O)c1c(NC(C)=O)ncnc1Nc1cc2cnn(C(=O)OC(C)(C)C)c2cc1OC [Compound 37, 1-tert-Butoxycarbonyl-5-((6-(acetylamino)-5-ethoxycarbonylpyrimidin-4-yl)amino)-6-methoxyindazole] | 23.8 |
| COc1cc2c(cc1Nc1cc(NC(=O)C3CC3)ncn1)ncn2C(=O)OC(C)(C)C [Compound 60, 1-tert-butoxycarbonyl-5-(6-cyclopropionamidopyrimidin-4-ylamino)-6-methoxybenzimidazole] | 792 |
| COc1cc2ncn(C(=O)OC(C)(C)C)c2cc1Nc1cc(NC(=O)C2CC2)ncn1 [Compound 61, 3-tert-butoxycarbonyl-5-(6-cyclopropionamidopyrimidin-4-ylamino)-6-methoxybenzimidazole] | 594 |
